Experimental data published in patent US8034899B2, “HIV fusion inhibitor peptides with improved biological properties” (priority 2006, dated 2011).

Assays:
[1] = Pharmacokinetics after intravenous dosing in cynomolgus monkeys; assay type: in vivo, cynomolgus monkeys (Macaca fasicularis); conditions: plasma
Protocol: For determining pharmacokinetic properties, an HIV fusion inhibitor peptide or a base sequence from which an HIV fusion inhibitor peptide is derived was dosed intravenously in cynomolgus monkeys (Macaca fasicularis) (other animal models may be used for determining pharmacokinetic properties, as known in the art). At various times post-dose, blood samples were drawn and plasma isolated by centrifugation. Plasma samples were stored frozen until analysis by LC-MS (liquid chromatography/mass spectrometry) in the electrospray, positive-ion mode. An HIV fusion inhibitor or base sequence was eluted from a C18 or C8 HPLC column with a gradient of acetonitrile in a buffer of 10 mM ammonium acetate, pH 6.8. At the time of analysis, plasma samples were deproteinated with either two or three volumes of acetonitrile containing 0.5% formic acid. Duplicate calibration standards in cynomolgus plasma samples were prepared at the same time as the samples and analyzed before and after the samples containing either HIV fusion inhibitor peptide or base sequence. Pharmacokinetic properties were calculated from the plasma concentration-time data using either mono-exponential or bi-exponential mathematical models. Models were derived by non-linear least squares optimization. A 1/C^2 weighting of concentrations was used. […]

[2] = tested on: 584.000098; experiment: In vitro resistance selection in MT2 cells, cMAGI susceptibility, isolate 584.000098; assay type: cell-based, HIV; conditions: starting isolate 584.000098
Excerpt: (§1) Assessment of biological properties included measurement of antiviral activity against HIV-1 strains. […] These assays score for reduction of infectious virus titer employing the indicator cell lines MAGI or the CCR5 expressing derivative cMAGI. Both cell lines exploit the ability of HIV-1 tat to transactivate the expression of a β-galactosidase reporter gene driven by the HIV-LTR. The β-gal reporter has been modified to localize in the nucleus and can be detected with the X-gal substrate as intense nuclear staining within a few days of infection. […] The number of infected cells for each control and peptide dilution was determined with the CCD-imager, and then the IC50 was calculated (expressed in μg/ml).
(§2) MT2 cells were infected with virus isolates (IIIB, 030, 060 and 098) and cultured in increasing concentrations of SEQ ID NO:2 (enfuvirtide) or SEQ ID NO:9 to select for resistance. […] Cultures were monitored for cytopathic effect (CPE) using standard techniques and when maximal CPE was achieved, a small aliquot of virus was used for subsequent rounds of infection. […] Peptide-free virus stocks were characterized for gp41 genotypic changes by dideoxy sequencing chemistries and phenotypic susceptibility was determined using a cMAGI infectivity assay.

[3] = tested on: 584.000060; experiment: In vitro resistance selection in MT2 cells, cMAGI susceptibility, isolate 584.000060; assay type: cell-based, HIV; conditions: starting isolate 584.000060
Excerpt: as §1, §2

[4] = no additional components; cited from earlier work
[5] = 10 mg/ml in PBS, pH 7.3 to 7.5, 37° C., after several hours
[6] = tested on: IIIB; experiment: In vitro resistance selection in MT2 cells, cMAGI susceptibility, isolate IIIB; assay type: cell-based, HIV; conditions: starting isolate IIIB
Excerpt: as §1, §2

[7] = tested on: virus isolates (IIIB, 030, 060 and 098); experiment: In vitro resistance selection, geometric mean over the four isolates; assay type: cell-based, HIV; conditions: Geometric Mean of four isolates
Excerpt: MT2 cells were infected with virus isolates (IIIB, 030, 060 and 098) and cultured in increasing concentrations of SEQ ID NO:2 (enfuvirtide) or SEQ ID NO:9 to select for resistance. The initial peptide concentration was approximately 2 times the IC50 of each peptide against the corresponding wild type isolate. Peptide concentrations were maintained by adding fresh peptide every 1-3 days. Cultures were monitored for cytopathic effect (CPE) using standard techniques and when maximal CPE was achieved, a small aliquot of virus was used for subsequent rounds of infection. Peptide concentrations were increased 2 to 4-fold depending on the length of time in culture when compared to the growth rate of wild type virus. During the course of selection, peptide-free virus stocks were also collected. Peptide-free virus stocks were characterized for gp41 genotypic changes by dideoxy sequencing chemistries and phenotypic susceptibility was determined using a cMAGI infectivity assay.

[8] = tested on: 584.000030; experiment: In vitro resistance selection in MT2 cells, cMAGI susceptibility, isolate 584.000030; assay type: cell-based, HIV; conditions: starting isolate 584.000030
Excerpt: as §1, §2

[9] = tested on: HIV-1LA1; conditions: cited from earlier work
[10] = tested on: HIV-1 IIIB; conditions: cited from earlier work

With “Ac-TTWEAWDRAIAEYAARIEALLRAAQEQQEKLEAALREL-NH2 [SEQ ID NO:10, TTWEAWDRAIAEYAARIEALLRAAQEQQEKLEAALREL]” the “Clearance” value [1] was under 0.33 mL/min/kg.

In the case of enfuvirtide, the “Fold Change in IC50” value [2] is listed as 912 fold, the “Fold Change in IC50” value [3] is listed as 7 fold and the “concentration achievable in an injectable aqueous solution without problems of solubility and stability” value [4] is listed as at most 100 mg/mL. The “stability of the solution (peptide remaining in solution)” value [5] was “minimal peptide detected in solution”, the “Fold Change in IC50” value [6] was 27 fold and the “Fold Change in IC50” value [7] was 42 fold. The “Fold Change in IC50” value [8] was 19 fold and the “EC50 blocking infection of target cells” value [9] was 0.5 ng/mL.

In the case of “MTWMEWDREINNYTSLIHSLIEESQNQQEKNEQELL [T651]”, the “IC50 blocking infection of target cells” value [10] is listed as 5 ng/mL.

For “Ac-TTWEAWDRAIAEYAARIEALLRALQEQQEKNEAALREL-NH2 [SEQ ID NO:9, TTWEAWDRAIAEYAARIEALLRALQEQQEKNEAALREL]”, the “Clearance” value [1] was under 0.33 mL/min/kg.
